Assay results reported in patent US6130248A, “Tricarboxylic acid-containing oxyalkyl esters and uses thereof” (Bar-ILAn University, priority 1996, dated 2000).

How the values were obtained:
Type in all cases: cell-based, human
[1] = test system: 53 primary tumor cell lines; test: Inhibition of clonogenicity of primary tumor cells
Excerpt: The tested tumor cells were from 11 non-small cell lung carcinomas, 10 breast carcinomas, 10 gastric carcinomas, 10 ovarian carcinomas, and 10 CNS tumors.

[2] = test system: Au565 breast carcinoma cells; test: Differentiation by lipid staining; conditions: 10 μM
Excerpt: Lipid staining and/or immunochemical staining of casein can be used as a marker for cellular differentiation of breast cancer cells (Bacus et al., Md. Carcin. 3:350-362, 1990). Casein detection can be done by histochemical staining of breast cancer cells using a human antibody to human casein as described by Cheung et al., J. Clin. Invest. 75:1722-1728,which is incorporated by reference in its entirety.
In the case of the human breast carcinoma cell line Au565, 100%. Of the cells treated with 10 μM GOMB were positive for lipid staining whereas less than 1% of cells treated with the same concentration of AB were positive for lipid staining.

[3] = test system: MCF-7 cells (WAF); test: Apoptosis in breast cancer cells, staining with WAF antibody / Western blot
Protocol: Induction of apoptosis by COMB and AB in MCF-7 cells was evaluated by staining cells with the WAF antibody and by Western blot analysis as described by Bacus et al., 1996, Oncogene 12:2535-2547.

[4] = test system: HL-60 cells; test: Induction of apoptosis (propidium iodide, flow cytometry); conditions: 3 days
Protocol: (§1) Apoptosis was measured as described by Telford et al., 1991, Cell Physiol. 24:447-459, in HL-60 cells and in the human erthroblastic cell line, K-562. Cells were treated with COMB for 3 days, fixed, stained with propidium iodine and analyzed by flow cytometrly for cell cycle distribution. […] This region consisted of cells with fragmented DNA.

[5] = test system: K-562 cells; test: as above; conditions: 3 days
Protocol: as §1

[6] = test system: K562 cells (HbF); test: Hb-containing K562 cells by benzidine staining; conditions: 5 days
Protocol: Hb Measurement: HB was measured by benzidine staining of K562 cells after 5 days exposure to GOMB or AB according to the procedure of Fibach et al. (1989) [full cite]. Quantitative measurement of HbF in K562 culture or human erythroid cultures was determined by ion-exchange high pressure liquid chromatography (HPLC) as described by Fibach et al., Blood 81:1630-1635, 1993.
K562 cells: K562 is an erthroblast cell line that develops some properties of erythroid, megakaryocyte or monocyte cells, depending on the specific stimulus, when induced by different chemicals. K562 cells were grown in RPMI with 10% FCS, supplemented with 2 mM glutamine. Cells were incubated at 37° C. in a humidified, 5% CO2 incubator.

Compound: CCCC(=O)OCOC(=O)CCCC(=O)O [GOMB, mono-(butyroyloxymethyl)glutarate]
- IC50 ([1]; Homo sapiens): 34 µM
- IC90 ([1]; Homo sapiens): 78 µM
- AB/GOMB IC50 Ratio ([1]; average): 13.9
- AB/GOMB IC90 Ratio ([1]; average): 27.3
- cells positive for lipid staining [2]: 100%
- % Cells Expressing WAF ([3]; 10 μM): 36%
- % Cells Expressing WAF ([3]; 25 μM): 34%
- % Cells Expressing WAF ([3]; 50 μM): 79%
- % Cells Expressing WAF ([3]; 100 μM): 81%
- increase in percentage of cells expressing WAF ([3]; versus 13% in the controls): 623%
- concentration inducing apoptosis, lower than AB ([3]; versus AB): 10 fold
- % apoptotic cells HL-60 ([4]; 5.0 μM): 9.4%
- % apoptotic cells HL-60 ([4]; 12.5 μM): 14.9%
- % apoptotic cells HL-60 ([4]; 25.0 μM): 15.8%
- % apoptotic cells HL-60 ([4]; 37.5 μM): 36.3%
- % apoptotic cells K-562 ([5]; 12.5 μM): 9%
- % apoptotic cells K-562 ([5]; 25.0 μM): 18%
- Percentage K562 Cells Containing HbF ([6]; 0.01 mM): 6.3 ± 1.15%
- Percentage K562 Cells Containing HbF ([6]; 0.05 mM): 12.3 ± 5.3%
- Percentage K562 Cells Containing HbF ([6]; 0.10 mM): 29%
